Counter-ions that a name gives are not always drawn.
System: RPA194
Experiment: RPA194 destruction / Pol I inhibition, high-content imaging in A375 cells
Format: cell-based
Conditions: A375 cells treated for 4 hours, anti-RPA194 immunofluorescence; pIC50 >= 5.02 deemed a Pol I inhibitor
Experimental: Cell culture: A375 cells (CRL-1619, ATCC) were grown in DMEM (GJBCO) supplemented with […] (GTBCO) in 5% CO2 at 37° C.
Cell treatment and Imaging: 18 hours post-seeding in cell carrier black 384-well plates (PerkinElmer) at 15 000 cells/well, A375 cells were treated for 4 hours with a positive control or test compounds (9 serial semi-log dilutions, top concentration 10 μM). Upon treatment A375 cells were (i) fixed for 15 min at RT with 4% of paraformaldehyde, (ii) permeabilized for 20 min at RT with 0.1-0.5% of NP-40, (iii) incubated with primary antibodies at 4° C.: anti-RPA194 (1:1000-1:1250 dilution, sc-48385, Santa Cruz Biotechnology) and anti-gH2Ax (1:5000 dilution, 81299, Abcam or 1:4000, JBW302, Millipore) (iv) incubated for 1 h at RT with Hoechst (1:5000 dilution, H3570, ThermoFisher) and secondary antibodies: anti-mouse-AlexaFluor488 (1:2000 dilution, A11001, ThermoFisher) and anti-rabbit-AlexaFluor647 (1:2000 dilution, A21443, ThermoFisher) or goat anti-mouse AlexaFluor-594 (1:1000 dilution). Images were acquired on an Operetta CLS High-Content Analysis System (PerkinElmer) (40× objective; 9 fields/well) and processed using the Columbus Image Analysis System (PerkinElmer) or by using Molecular Devices ImageXpress Micro XLS High Content Imager and MetaXpress high-content acquisition and analysis software.
In the table below, (+) is associated with a pIC50 5.02 to 5.8; (++) with pIC50 5.8 to 6.3; and (+++) with a pIC50 above 6.3.

SMILES	Activity Range (pIC50)
NCCNC(=O)c1cccn2c(=O)c3ccc4ccccc4c3nc12 [Example 17, N-(2-aminoethyl)-7-oxo-7H-benzo[h]pyrido[2,1-b]quinazoline-12-carboxamide hydrochloride]	+ ((+) is associated with a pIC50 5.02 to 5.8)
O=C(NCCCN1CC2CCC(C1)O2)c1cccn2c(=O)c3ccc4ccccc4c3nc12 [Example 34, N-(3-(8-oxa-3-azabicyclo[3.2.1]octan-3-yl)propyl)-7-oxo-7H-benzo[h]pyrido[2,1-b]quinazoline-12-carboxamide; hydrochloride]	+ ((+) is associated with a pIC50 5.02 to 5.8)
O=C(NC1CNC1)c1cccn2c(=O)c3ccc4ccccc4c3nc12 [Example 8, N-(azetidin-3-yl)-7-oxo-7H-benzo[h]pyrido[2,1-b]quinazoline-12-carboxamide dihydrochloride]	+ ((+) is associated with a pIC50 5.02 to 5.8)
C[C@H](CNC(=O)c1cccn2c(=O)c3ccc4ccccc4c3nc12)N(C)C [Example 11, (R)-N-(2-(dimethylamino)propyl)-7-oxo-7H-benzo[h]pyrido[2,1-b]quinazoline-12-carboxamide; hydrochloride]	+++ ((+++) with a pIC50 above 6.3)
O=C(NCCN1CC[C@H](O)C1)c1cccn2c(=O)c3ccc4ccccc4c3nc12 [Example 2, (S)-N-(2-(3-hydroxypyrrolidin-1-yl)ethyl)-7-oxo-7H-benzo[h]pyrido[2,1-b]quinazoline-12-carboxamide; hydrochloride]	+++ ((+++) with a pIC50 above 6.3)
CCN(CC)CCNC(=O)c1cccn2c(=O)c3ccc4ccccc4c3nc12 [Example 12, N-(2-(diethylamino)ethyl)-7-oxo-7H-benzo[h]pyrido[2,1-b]quinazoline-12-carboxamide; hydrochloride]	++ ((++) with pIC50 5.8 to 6.3)
C[C@H](CN1C[C@H](O)[C@@H](O)C1)NC(=O)c1cccn2c(=O)c3ccc4ccccc4c3nc12 [Example 27, N-((R)-1-((3S,4S)-3,4-dihydroxy-pyrrolidin-1-yl)propan-2-yl)-7-oxo-7H-benzo[h]pyrido[2,1-b]quinazoline-12-carboxamide hydrochloride]	++ ((++) with pIC50 5.8 to 6.3)
CN(C)CCCNC(=O)c1cccn2c(=O)c3ccc4ccccc4c3nc12 [Example 38, N-(3-(dimethylamino)propyl)-7-oxo-7H-benzo[h]pyrido[2,1-b]quinazoline-12-carboxamide; hydrochloride]	+ ((+) is associated with a pIC50 5.02 to 5.8)
C[C@H]1CCCN1CCNC(=O)c1cccn2c(=O)c3ccc4ccccc4c3nc12 [Example 36, (S)-N-(2-(2-methylpyrrolidin-1-yl)ethyl)-7-oxo-7H-benzo[h]pyrido[2,1-b]quinazoline-12-yl)ethan-1-carboxamide; hydrochloride]	+ ((+) is associated with a pIC50 5.02 to 5.8)
C[C@@H](CN(C)C)NC(=O)c1cccn2c(=O)c3ccc4ccccc4c3nc12 [Example 13, (S)-N-(1-(dimethylamino)propan-2-yl)-7-oxo-7H-benzo[h]pyrido[2,1-b]quinazoline-12-carboxamide; hydrochloride]	++ ((++) with pIC50 5.8 to 6.3)
CN(C)CCNC(=O)c1cccn2c(=O)c3ccc4ccccc4c3nc12 [Example 1, hydrochloride]	+++ ((+++) with a pIC50 above 6.3)
C[C@@H](CN1CC[C@H](O)C1)NC(=O)c1cccn2c(=O)c3ccc4ccccc4c3nc12 [Example 28, N-((S)-1-((S)-3-hydroxypyrrolidin-1-yl)propan-2-yl)-7-oxo-7H-benzo[h]pyrido[2,1-b]quinazoline-12-[(2S)-2-aminopropyl] pyrrolidin-3-ol; hydrochloride (165 mg, carboxamide hydrochloride]	++ ((++) with pIC50 5.8 to 6.3)
CC1(C)CCN(CCNC(=O)c2cccn3c(=O)c4ccc5ccccc5c4nc23)C1 [Example 21, N-(2-(3,3-dimethylpyrrolidin-1-yl)ethyl)-7-oxo-7H-benzo[h]pyrido[2,1-b]quinazoline-12-carboxamide hydrochloride]	++ ((++) with pIC50 5.8 to 6.3)
O=C(NCCN1CC[C@H](F)C1)c1cccn2c(=O)c3ccc4ccccc4c3nc12 [Example 33, (S)-N-(2-(3-fluoropyrrolidin-1-yl)ethyl)-7-oxo-7H-benzo[h]pyrido[2,1-b]quinazoline-12-carboxamide; hydrochloride]	+ ((+) is associated with a pIC50 5.02 to 5.8)
O=C(NCCCN1CC[C@@H](O)C1)c1cccn2c(=O)c3ccc4ccccc4c3nc12 [Example 40, (R)-N-(3-(3-hydroxypyrrolidin-1-yl)propyl)-7-oxo-7H-benzo[h]pyrido[2,1-b]quinazoline-12-carboxamide; hydrochloride]	+ ((+) is associated with a pIC50 5.02 to 5.8)
CNCCNC(=O)c1cccn2c(=O)c3ccc4ccccc4c3nc12 [Example 16, N-(2-(methylamino)ethyl)-7-oxo-7H-benzo[h]pyrido[2,1-b]quinazoline-12-carboxamide hydrochloride]	+++ ((+++) with a pIC50 above 6.3)
O=C(NCCN1CCCCC1)c1cccn2c(=O)c3ccc4ccccc4c3nc12 [Example 15, 7-oxo-N-(2-(piperidin-1-yl)ethyl)-7H-benzo[h]pyrido[2,1-b]quinazoline-12-carboxamide; hydrochloride]	++ ((++) with pIC50 5.8 to 6.3)
O=C(NCCN1CCC(O)CC1)c1cccn2c(=O)c3ccc4ccccc4c3nc12 [Example 5, N-(2-(4-hydroxypiperidin-1-yl)ethyl)-7-oxo-7H-benzo[h]pyrido[2,1-b]quinazoline-12-carboxamide hydrochloride]	+++ ((+++) with a pIC50 above 6.3)

System: NCI60 cancer cell lines
Experiment: not given
Conditions: cited from earlier work

SMILES	anticancer activity
CN(C)CCNC(=O)c1cccn2c(=O)c3cc4ccccc4cc3nc12 [BMH-21, 12H-Benzo[g]pyrido[2,1-b]quinazoline-4-carboxamide, N-[2(dimethylamino)ethyl]-12-oxo]	anticancer activity

System: mouse xenograft
Experiment: not given
Conditions: mouse xenograft assays; cited from earlier work

SMILES	tumor burden
CN(C)CCNC(=O)c1cccn2c(=O)c3cc4ccccc4cc3nc12 [BMH-21, 12H-Benzo[g]pyrido[2,1-b]quinazoline-4-carboxamide, N-[2(dimethylamino)ethyl]-12-oxo]	reduced tumor burden
